The conditions of the data set: 355.65 K; Liquid.

± gives the expanded uncertainty stated by the source.

Take `CC(C)O` [propan-2-ol]: the “vapor or sublimation pressure” value stood at 101.32 ± 3 kPa.
